The results in this text go back to patent US10730874B2 (Shire Human Genetic Therapies, Inc., priority 2018, dated 2020).

SMILES strings stand for the structures. Bounds are passed on as bounds.

Sequence of human activated kallikrein enzyme (plasma kallikrein) (P03952 391-638): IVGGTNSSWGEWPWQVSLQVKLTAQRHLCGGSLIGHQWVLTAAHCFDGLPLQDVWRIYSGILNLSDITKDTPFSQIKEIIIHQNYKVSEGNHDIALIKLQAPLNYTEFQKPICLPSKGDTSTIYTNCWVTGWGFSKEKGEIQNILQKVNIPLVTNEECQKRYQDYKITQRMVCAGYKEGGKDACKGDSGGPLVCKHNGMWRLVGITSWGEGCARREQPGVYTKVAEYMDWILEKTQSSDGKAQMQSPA
Sequence of human activated kallikrein enzyme (plasma kallikrein) (P03952 20-390 partner): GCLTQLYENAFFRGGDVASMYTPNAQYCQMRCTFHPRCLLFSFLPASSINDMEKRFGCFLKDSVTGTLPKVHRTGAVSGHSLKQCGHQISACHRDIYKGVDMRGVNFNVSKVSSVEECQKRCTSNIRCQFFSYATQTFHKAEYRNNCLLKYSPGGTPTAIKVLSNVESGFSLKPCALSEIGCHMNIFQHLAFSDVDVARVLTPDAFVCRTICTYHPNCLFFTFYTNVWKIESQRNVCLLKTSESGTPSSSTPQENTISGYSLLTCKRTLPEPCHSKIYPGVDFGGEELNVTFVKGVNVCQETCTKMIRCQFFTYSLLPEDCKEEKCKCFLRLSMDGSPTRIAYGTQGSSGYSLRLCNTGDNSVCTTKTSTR

The test has as its target human activated kallikrein enzyme (plasma kallikrein) (Homo sapiens (Human), UniProt P03952). In words: Inhibition of human activated plasma kallikrein, fluorogenic peptide substrate assay, 500 pM enzyme format. In kind it is biochemical. Particulars: 500 pM activated kallikrein enzyme, 300 uM Pro-Phe-Arg-7-amido-4-methylcoumarin substrate, 30 min preincubation, 10 min at RT; read-out: Primary Dose Response Assay: Average EC50. The method, boiled down: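 Buffer 20 mM Tris pH 7.5, EDTA, NaCl, PEG-400, Triton X-100; 300 uM Pro-Phe-Arg-AMC; enzyme–inhibitor preincubation 30 min RT. Format one: 500 pM kallikrein, 10 min RT reaction; format two: 5 pM kallikrein, 18 h RT reaction. Fluorescence read at 460 nm (380 nm excitation).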
For `O=C(NCc1ncn2ccc(Cl)c(F)c12)c1cn(Cc2cn3cc(C4CC4)cc(N4CCOC(C(=O)O)C4)c3n2)nn1` (stereo not shown) [Example I-264, 4-(2-((4-(((7-chloro-8-fluoroimidazo[1,5-a]pyridin-1-yl)methyl)carbamoyl)-1H-1,2,3-triazol-1-yl)methyl)-6-cyclopropylimidazo[1,2-a]pyridin-8-yl)morpholine-2-carboxylic acid], the EC50 was < 1 nM.
`CC(C)(O)c1cc(C2CC2)cn2cc(Cn3cc(C(=O)NCc4ncn5ccc(Cl)cc45)cn3)nc12` [Example I-104b, N-((7-chloroimidazo[1,5-a]pyridin-1-yl)methyl)-1-((6-cyclopropyl-8-(2-hydroxypropan-2-yl)imidazo[1,2-a]pyridin-2-yl)methyl)-1H-pyrazole-4-carboxamide]: the EC50 was < 1 nM.
Turning to `CCOC(=O)c1cc(C2CC2)cn2cc(Cn3cc(C(=O)NCc4ncn5ccc(Cl)c(F)c45)nn3)nc12` [Example I-166a, ethyl 2-((4-(((7-chloro-8-fluoroimidazo[1,5-a]pyridin-1-yl)methyl)carbamoyl)-1H-1,2,3-triazol-1-yl)methyl)-6-cyclopropylimidazo[1,2-a]pyridine-8-carboxylate], the EC50 was < 1 nM.
Turning to `COCCc1cc(C2CC2)cn2cc(Cn3cc(C(=O)NCc4ncn5ccc(Cl)cc45)cn3)nc12` [Example I-125, N-((7-chloroimidazo[1,5-a]pyridin-1-yl)methyl)-1-((6-cyclopropyl-8-(2-methoxyethyl)imidazo[1,2-a]pyridin-2-yl)methyl)-1H-pyrazole-4-carboxamide], the EC50 is < 1 nM.
Consider `O=C(NCc1ncn2ccc(Cl)c(F)c12)c1cn(Cc2cc3cc(C4CC4)cc(N4CCCC4=O)n3n2)nn1` [Example I-262, N-((7-chloro-8-fluoroimidazo[1,5-a]pyridin-1-yl)methyl)-1-((5-cyclopropyl-7-(2-oxopyrrolidin-1-yl)pyrazolo[1,5-a]pyridin-2-yl)methyl)-1H-1,2,3-triazole-4-carboxamide], for which the EC50 was < 1 nM.
Regarding `O=C(NCc1ncn2ccc(Cl)c(F)c12)c1cn(Cc2cn3cc(C4CC4)cc(CN4CCCC4)c3n2)nn1` [Example I-295, N-((7-chloro-8-fluoroimidazo[1,5-a]pyridin-1-yl)methyl)-1-((6-cyclopropyl-8-(pyrrolidin-1-ylmethyl)imidazo[1,2-a]pyridin-2-yl)methyl)-1H-1,2,3-triazole-4-carboxamide], the EC50 was < 1 nM.
Regarding `O=C(NCc1ncn2ccc(Cl)cc12)c1cnn(Cc2cn3c(Cl)c(C4CC4)ccc3n2)c1` [Example I-23, 1-((5-chloro-6-cyclopropylimidazo[1,2-a]pyridin-2-yl)methyl)-N-((7-chloroimidazo[1,5-a]pyridin-1-yl)methyl)-1H-pyrazole-4-carboxamide], the EC50 was < 1 nM.
Turning to `O=C(NCc1ncn2ccc(Cl)cc12)c1cn(Cc2cn3c(F)c(C4CC4)ccc3n2)nn1` [Example I-144, N-((7-chloroimidazo[1,5-a]pyridin-1-yl)methyl)-1-((6-cyclopropyl-5-fluoroimidazo[1,2-a]pyridin-2-yl)methyl)-1H-1,2,3-triazole-4-carboxamide], the EC50 was < 1 nM.
On to `O=C(NCc1ncn2ccc(Cl)c(F)c12)c1cn(Cc2cc3ccc(Cl)cc3[nH]2)nn1` [Example I-222, 1-((6-chloro-1H-indol-2-yl)methyl)-N-((7-chloro-8-fluoroimidazo[1,5-a]pyridin-1-yl)methyl)-1H-1,2,3-triazole-4-carboxamide], for which the EC50 lay in the range of 100 to 2000 nM.
As for `CCOC(=O)COc1cc(C2CC2)cn2cc(Cn3cc(C(=O)NCc4ncn5ccc(Cl)c(F)c45)nn3)nc12` [Example I-207, ethyl 2-((2-((4-(((7-chloro-8-fluoroimidazo[1,5-a]pyridin-1-yl)methyl)carbamoyl)-1H-1,2,3-triazol-1-yl)methyl)-6-cyclopropylimidazo[1,2-a]pyridin-8-yl)oxy)acetate], the EC50 was < 1 nM.

One may read the EC50 as the concentration giving half of the maximal effect.
